Data on six compounds can be found in ChEMBL document CHEMBL3044990, “Synthesis and Insecticidal Activity of 5-Dimethylamino-1, 3dithianes” (1991).

Values after ≈ are worked out from the molar mass of the structure shown.

Holding throughout (assay type): functional
One assay has as its system Chilo suppressalis. Kind of assay: Insecticidal activity against 5th instar larva of Chilo suppressalis assessed as mortality at 50 ug/g after 48 hr.
Another assay has as its system Spodoptera litura. Kind of assay: Insecticidal activity against third-instar larvae of Spodoptera litura in soybean seedlings assessed as mortality at 500 ppm after 48 hr.
Assay [1] concerns Henosepilachna vigintioctopunctata. Nature of the assay: Insecticidal activity against third-instar larvae of Henosepilachna vigintioctopunctata assessed as mortality after 2 days. The note with it: 48 h.
The next assay concerns Tetranychus urticae. Kind of assay: Insecticidal activity against Tetranychus urticae (two-spotted spider mite) in kidney bean plant leaf assessed as mortality at 500 ppm after 2 days. The note with it: 48 h.
A further assay deals with Laodelphax striatellus. Kind of assay: Insecticidal activity against 3rd instar larva of Laodelphax striatella (small brown planthopper) assessed as mortality at 50 ppm after 6 days. The note with it: 144 h.

In the case of `CCCCCCCCCCNC(=O)C1(C#N)SCC(N(C)C)CS1` (stereo not given), the mortality with Chilo suppressalis is given as 100%. The figures for the mortality at 500 ppm in the assay with Spodoptera litura and with Tetranychus urticae were 50% and 90%, respectively. For the same compound, the LC50 in assay [1] is 20 µg/mL (≈ 53.8 µM). The mortality at 50 ppm in the assay on Laodelphax striatellus was 85%.

For `CN(C)C1CSC(C#N)(C(=O)NC2CCCCC2)SC1` (stereo not given), the mortality in the assay on Chilo suppressalis came out at 100%. In addition, the values for the mortality at 500 ppm in the assay with Spodoptera litura and in the assay on Tetranychus urticae were 50% and 80%, respectively. The LC50 in assay [1] stood at 25 µg/mL (≈ 79.7 µM). Moreover, the mortality at 50 ppm in the assay on Laodelphax striatellus was 40%.

As to `CCCCCCCCCCCCCCNC(=O)C1(C#N)SCC(N(C)C)CS1` (stereo not given), in the assay with Chilo suppressalis, the mortality came to 100%. Also, the mortality at 500 ppm in the assay with Spodoptera litura and with Tetranychus urticae was 70% throughout. Besides, the LC50 in assay [1] is 33 µg/mL (≈ 77.2 µM). The mortality at 50 ppm in the assay on Laodelphax striatellus came out at 25%.

Turning to `CCCCCCCCNC(=O)C1(C#N)SCC(N(C)C)CS1` (stereo not given), in the assay with Chilo suppressalis, the mortality was found to be 100%. The mortality at 500 ppm in the assay with Spodoptera litura turned out to be 80%; in the assay on Tetranychus urticae, 100%. For the same compound, the LC50 in assay [1] turned out to be 23 µg/mL (≈ 66.9 µM). In the assay on Laodelphax striatellus, the mortality at 50 ppm was found to be 80%.

For the compound `CCN(CC)C(=O)C1(C#N)SCC(N(C)C)CS1` (stereo not given), in the assay on Chilo suppressalis, the mortality is on record as 100%. Moreover, the mortality at 500 ppm in the assay with Spodoptera litura and in the assay with Tetranychus urticae was 80% throughout. For the same compound, the LC50 in assay [1] was 15 µg/mL (≈ 52.2 µM). Besides, the mortality at 50 ppm in the assay on Laodelphax striatellus is 24%.

Turning to `CCCCCCNC(=O)C1(C#N)SCC(N(C)C)CS1` (stereo not given), the mortality in the assay with Chilo suppressalis was found to be 100%. Moreover, the mortality at 500 ppm in the assay on Spodoptera litura worked out at 70%; in the assay with Tetranychus urticae, 100%. The LC50 in assay [1] stood at 10 µg/mL (≈ 31.7 µM). Further, in the assay with Laodelphax striatellus, the mortality at 50 ppm came to 65%.

A word on the mortality: it is the share of the test organisms that died. By LC50 is commonly meant the concentration lethal to half of the exposed cells or organisms.
